Tests used:
[1] = Cargo loading efficiency of Se-PCPP hydrogel (UV-Vis / ICP-OES); type: physicochemical; details: UV-vis spectroscopy
Method: Se-PCPP hydrogel: A mixture of 1 mL PCPP (4 mg·mL^−1, PBS) and 10.3 mg Na2HPO4 were mixed together and pH was adjusted to 7.4 by addition of HCl (1 M). Next, 1.4 μL of selenocystamine dihydrochloride (110 mg·mL^−1, PBS) were added to the mixture and vortexed for 30 seconds. The mixture was dropping into 10 mL of a CaCl2 (8.8%, DI H2O) and left to react under vigorous stirring for 20 minutes at room temperature. Finally, the solution was transferred to conical tubes and centrifuged at 2 k rpm for 8 min. The supernatant was discarded, and the pellet was re-suspended in DI water. After repeating this process three times, the Se-PCPP solution was re-suspended in DI water, vortexed at 14 k rpm and stored at 4° C. The final concentration of […] in the sample was determined using ICP-OES performed on a Spectro Genesis ICP.
Cargo loaded Se-PCPP hydrogel: For the cargo loaded Se-PCPP hydrogel, the PCPP (4 mg/mL, PBS) solution was mixed with the desired amount of cargo (solutions of doxorubicin, FITC-BSA or quisinostat at 1 mg/mL) and 10.3 mg Na2HPO4. The total volume was completed to 2 mL with PBS, pH was adjusted to 7.4 by addition of HCl (1 M) and incubated for 10 minutes before cross-linking with selenocystamine dihydrochloride as described above. The final drug concentration in the sample were determined using UV-Vis spectroscopy by determining the loading efficiency (LE), calculated as follows: % LE=([stock drug]−[non-loaded drug]/[stock drug])*100.

U251 DR5-Luc cells = test: Cell based high throughput death receptor screen (DR5-Luc reporter bioluminescence); details: compound at 100 nM, 24 h; positive control Tunicamycin 100 nM
Method: High throughput screening (HTS) was performed by the HTS core at the University of Pennsylvania. U251 DR5-Luc cells were plated at 2.0×10^3 cells/well across ten 384 well plates. Plates were then incubated in a humidified environment at 37° C. and 5% CO2 for twenty-four hours. Compound from the Selleckchem Bioactive Compound Library I was added to each well at 100 nM (approximately 3200 compounds). Tunicamycin (100 nM) and DMSO (0.1% v/v) served a positive and negative plate controls. Brite-Lite (PerkinElmer, Waltham, MA) reagent was added all plates twenty-four hours following the addition of compound, and plates were assayed on Envision Xcite (PerkinElmer) plate reader. The mean (μ) and standard deviation (σ) for each plate was used to transform total flux for each compound (xi) into z-scores using the formula z=(xi−μ/σ). Calculation of Z-prime for this screening assay was based upon the formula set forth by Zhang et al utilizing Tunicamycin and DMSO as a positive and negative controls respectively. Positive hits were identified as compounds that produced z-prime values greater than Tunicamycin. Reporter activity was validated following compound incubation and bioluminescence imaging on the IVIS spectrum (PerkinElmer).

[2] = Hydrogel degradation and cargo release after X-ray irradiation; type: physicochemical
Method: X-ray irradiation The radiation dose delivered to the sample is quantified in gray (Gy) with the relation of 1 Gy=1 J/kg. The X-ray irradiation was performed on an X-RAD 320ix irradiator (PXi, North Branford, CT) operated at 320 kV, 12.5 mA, focal spot of 8 mm^2 and with an aluminum filter of 2 mm delivering a dosage rate of 2.65 Gy/minute. In brief, the Se-PCPP hydrogel was sampled into 1 mL tube and placed in the irradiator chamber for the desired time depending onto the X-ray dose to be delivered.
Se-PCPP hydrogel ([Au]=0.2 mg/mL) was suspended into 1 mL of freshly prepared PBS/10 FBS in micro-centrifuge tubes and centrifuged at 4 k rpm for 8 minutes. Samples were irradiated with the desired X-ray dose and incubated at 37° C. for the overall experiment time. At the desired time point, samples were vortexed, centrifuged at 4000 rpm for 8 minutes and the supernatant was gently collected for quantification of the released cargo by ICP-OES or UV-vis spectroscopy. 1 mL of freshly prepared incubation medium was rapidly added to each sample, all were incubated at 37° C. until the next time point.

NS039 = test: Compound dilution studies and cell viability (Cell Titer Glo); type: cell-based, human; details: for IC50: NS039, 72 h
Method: (§1) Cells were plated at density of 7.5-1.0×10^4 cells/well in 96 well plates using their respective media. Plates were then incubated in a humidified environment at 37° C. and 5% CO2 for twenty-four hours. An eleven-point dilution series of positive hits from our HTS screen was added to each plate. Cells treated with 0.1% DMSO served as a vehicle control. Plates were incubated with compound for seventy-two hours at 37° C. and 5% CO2, followed by addition of Cell Titer Glo® (Promega). Bio-luminescent readings were obtained using a Synergy HT luminometer (BioTek, Winooski, VT). Raw bio-luminescent values were normalized to their vehicle treated controls, and then fit to a modified Hill Equation using OriginPro 8 (OriginLab, Northampton, MA) in order to calculate IC50 values. All dilution series experiments were performed as biological triplicates.

T4213 = test: as above; type: cell-based; details: for IC50: T4213, 72 h
Method: as §1

T4213 orthotopic tumor = test: Orthotopic tumor implantation and treatment with Quisinostat; type: in vivo, athymic nude mice
From the text: T4213 cells were stably modified using a lentiviral vector containing GFP and Luciferase (Biosettia, San Diego, CA). Cells were resuspended in serum free media, and then 3.0×10^5 cells were stereotactically injected into the right striatum of five-week female athymic nude mice (Charles River Labs). Tumor bioluminescence was quantified on the IVIS spectrum (PerkinElmer, Hopkinton, MA) following intraperitoneal administration of D-Luciferin (Goldbio, St Louis MO) two days following cell implantation. In a separate experiment, mice underwent serial bioluminescent imaging following orthotopic T4213 implantation. Mice were assigned to different treatment groups such that the total flux (photons/s) was equivalent between groups (6.4×10^6 photons/s). Treatment was initiated immediately following bioluminescent imaging, and consisted of once daily intraperitoneal administration of 2-Hydroxypropyl-β-cyclodextrin (vehicle, Cayman Chemical, Ann Arbor MI) or 10 mg/kg Quisinostat (Cayman Chemical) for a total of eight doses (FIG. 5A). […] Bioluminescent imaging was repeated seventy-two hours after the last treatment was administered. […] Serial bioluminescence was assessed using a one-way repeated measures ANOVA followed by a post-hoc Tukey test. Post-treatment total flux was background corrected, and the percent change in total flux was analyzed using a Mann-Whitney U test. […]

T4213 and NS039 cells = test: Sphere formation assay; type: cell-based; details: 1.0 μM
Method: T4213 and NS039 cells were plated at 2000 cells/well in six well plates in the presence of 0.1% DMSO or 1.0 μM Quisinostat in biological triplicate for twelve days. On day twelve, individual wells were imaged on a Lionheart Fx microscope at 4× magnification following addition of NucBlue™ (Hoechst 33342, Invitrogen). Circular blue objects greater than 50 μm in diameter and less than […] were counted as neurospheres. Differences in sphere formation between cells and treatments were assessed using a one-way ANOVA followed by post-hoc Tukey's test in GraphPad Prism 8. P-values less than 0.05 were considered significant.

CHOP and DR5 = test: Western blot analysis of CHOP and DR5; type: cell-based
Method: Western blot analysis was performed using standard techniques as understood in the art, including those described at least by S. Sheikh et. al., Mol. Cancer Res. 2019, 17 (5), 1102-1114.

[3] = tested on: Patient-derived glioblastoma organoids (GBOs); test: Brain tumor organoids, compound incubation, viability and immunofluorescence; type: cell-based, human; details: 1.0 μM
Method: Glioblastoma organoids (GBOs) were generated from primary brain tumor as previously described.3 Briefly, primary brain tumor specimens were minced into approximately 1 mm pieces following clinical confirmation of pathologic diagnosis and incubated in GBO medium containing 50% DMEM:F12 (Thermo Fisher Scientific), 50% Neurobasal (Thermo Fisher Scientific), 1× GlutaMax (Thermo Fisher Scientific), 1× NEAAs (Thermo Fisher Scientific), 1× PenStrep (Thermo Fisher Scientific), 1× N2 supplement (Thermo Fisher Scientific), 1× B27 w/o vitamin A supplement (Thermo Fisher Scientific), 1× 2-mercaptoethanol (Thermo Fisher Scientific), and […] human insulin (Sigma) per well and placed on an orbital shaker rotating at 120 rpm within a 37° C., 5% CO2, and 90% humidity sterile incubator. Organoids would generally form 2-4 weeks following initial culturing. Organoids were then incubated in GBO containing media containing either DMSO (0.1%) or 1.0 μM quisinostat with media changes every two days for seven days total. Post-treatment images were taken on brightfield microscope and samples were subsequently fixed in 4% paraformaldehyde×30 minutes for immunofluorescence analysis.
Serial tissue sections (20 μm) were sliced using a cryostat (Leica, CM3050S), and melted onto charged slides (Thermo Fisher Scientific). Slides were dried at room temperature and stored at −20° C. until ready for immunohistology. For immunofluorescence staining, the tissue sections were outlined with a hydrophobic pen (Vector Laboratories) and washed with TBS containing 0.1% Tween-20 (v/v). Non-specific binding was blocked using a solution containing 10% donkey serum (v/v), 0.5% Triton X-100 (v/v), 1% BSA (w/v), 0.1% gelatin (w/v), and 22.52 mg/ml glycine in TBST for 1 hour at room temperature. […]
GBOs were imaged on a Zeiss LSM 710 confocal microscope (Zeiss) using a 20× objective with Zen 2 software (Zeiss). Images were quantified and analyzed using ImageJ software. […]

Compound | loading efficiency in Se-PCPP hydrogel [1] [%] | bioluminescent signal in cell-based death receptor assay (U251 DR5-Luc cells) | IC50 (NS039) | IC50 (T4213) | other results
COc1cccc2c1C(=O)c1c(O)c3c(c(O)c1C2=O)C[C@@](O)(C(=O)CO)C[C@@H]3O[C@H]1C[C@H](N)[C@H](O)[C@H](C)O1 [doxorubicin] | 74 |  |  |  | 
CCS(=O)(=O)Nc1ccc(Oc2ccc(F)cc2F)c(-c2cn(C)c(=O)c3[nH]ccc23)c1 [ABBV-075] |  | greater than our positive control Tunicamycin |  |  | 
FITC-BSA | 91 |  |  |  | delivery profile from Se-PCPP hydrogel [2]: slower than both quisinostat and doxorubicin
COc1ccc(-c2nc(N3CCOCC3)c3sc(CN(C)c4ncc(C(=O)NO)cn4)cc3n2)cn1 [CUDC-907] |  | greater than our positive control Tunicamycin | single digit nanomolar | single digit nanomolar | 
Cn1cc(CNCC2CCN(c3ncc(C(=O)NO)cn3)CC2)c2ccccc21 [Quisinostat] | 81 | greater than our positive control Tunicamycin | single digit nanomolar | single digit nanomolar | therapeutic window (ratio of IC50s between NHA and NS039) (NS039; normal human astrocytes vs NS039): favorable therapeutic window; tumor bioluminescence (T4213 orthotopic tumor; 10 mg/kg once daily intraperitoneal with breaks, seventy-two hours after last treatment): significant reduction; mouse body weight (T4213 orthotopic tumor; systemic administration): reduction of mouse body weight; therapeutic window (ratio of IC50s between NHA and T4213) (T4213; normal human astrocytes vs T4213): favorable therapeutic window; cell morphology, sphere formation and integrity (T4213 and NS039 cells; Hoechst staining): shrunken and fragmented cell morphology; neurosphere formation (T4213 and NS039 cells; twelve days, control 120-130 neurospheres per well, p<0.05): 4-27 neurospheres per well; CHOP dependent DR5 expression (CHOP and DR5): at nanomolar concentrations; Caspase staining ([3]; five distinct GBO lines): increased; Ki67 staining ([3]; five distinct GBO lines): decreased; organoid size ([3]; seven days): noticeably shrink
O=C(/C=C/c1ccc(CN(CCO)CCc2c[nH]c3ccccc23)cc1)NO [Dacinostat] |  | greater than our positive control Tunicamycin |  |  | 

— patent publication US12486401B2, “‘Smart’ hydrogel for the radiosensitization and sustained delivery of therapeutics triggered by irradiation” (The Trustees of the University of Pennsylvania, priority 2019, dated 2025)
